The values that follow come from paper PMC8508980, “Design, Synthesis and Anticancer Profile of New 4-(1H-benzo[d]imidazol-1-yl)pyrimidin-2-amine-Linked Sulfonamide Derivatives with V600EBRAF Inhibitory Effect” (International Journal of Molecular Sciences, 2021).

Assay in all cases: NCI 60 cell line screen
Common to all, as to type: cell-based, human

The test system of one experiment is T-47D. Particulars: for activity at 10 µM: Homo sapiens, T47D, Breast Cancer, read-out: Percent growth; for percent inhibition: NCI-60 heat map analysis. The procedure, abridged: (§1)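 Cells grown in RPMI 1640 with 5% FBS were plated 24 h before dosing, then exposed for 48 h at 37 °C to five drug concentrations (maximum 10 µM). Adherent cells were TCA-fixed, suspension cells fixed with 80% TCA. SRB absorbance at 515 nm, relative to time-zero and control plates, gave percent growth and TGI.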

The next experiment has as its system MDA-MB-468. The note with it: Homo sapiens; MDA-MB-468, Breast Cancer; read-out: Percent growth. The procedure, abridged: as §1
Another experiment deals with HCT-15. The note with it: Homo sapiens; HCT-15, Colon Cancer; read-out: Percent growth. The essentials:
(§2)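 SRB read-out (515 nm) after 48 h drug exposure, 37 °C, RPMI 1640/5% FBS; five-point dilution series, top conc. 10 µM. Percent growth from Tz, control and treated absorbances; GI50 and TGI derived.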

The test system of the next experiment is SF-295. Particulars: Homo sapiens; SF-295, CNS-Cancer; read-out: Percent growth. The procedure, abridged: as §2
A further experiment has as its system EKVX. Particulars: Homo sapiens, Non-Small Cell Lung Cancer, read-out: Percent growth. The essentials: as §2
Another experiment has as its system HOP-92. Particulars: Homo sapiens; HOP-92, Non-Small Cell Lung Cancer; read-out: Percent growth. The procedure, abridged: as §1
In another experiment the test system is SNB-75. Particulars: Homo sapiens; SNB-75, CNS-Cancer; read-out: Percent growth. The procedure, abridged: as §2
Another experiment deals with U251. The note with it: Homo sapiens, U-251; U251, CNS-Cancer; read-out: Percent growth. The procedure, abridged:
as §2

The test system of a further experiment is MOLT-4. Particulars: for activity at 10 µM: Homo sapiens, MOLT-4, Leukemia, read-out: Percent growth. The procedure, abridged:
as §1

A further experiment has as its system RXF 393. The note with it: Homo sapiens; RXF 393, Renal Cancer; read-out: Percent growth. The essentials: as §2
The next experiment deals with HT29. Particulars: Homo sapiens, HT-29; HT29, Colon Cancer; read-out: Percent growth. The procedure, abridged:
as §2

The next experiment relates to K-562. Particulars: for activity at 10 µM: Homo sapiens, K562, K-562, Leukemia, read-out: Percent growth. The essentials: as §2
In another experiment the test system is NCI-H23. Particulars: Homo sapiens; NCI-H23, Non-Small Cell Lung Cancer; read-out: Percent growth. The procedure, abridged: as §2
The test system of another experiment is CAKI-1. The note with it: Homo sapiens; CAKI-1, Renal Cancer; read-out: Percent growth. The essentials:
as §2

The subject of another experiment is KM12. The note with it: Homo sapiens; KM12, Colon Cancer; read-out: Percent growth. The procedure, abridged: as §1
In the next experiment the test system is NCI-H460. The note with it: Homo sapiens; NCI-H460, Non-Small Cell Lung Cancer; read-out: Percent growth. The essentials: as §2
Another experiment relates to UO-31. The note with it: Homo sapiens; UO-31, Renal Cancer; read-out: Percent growth. The procedure, abridged:
as §2

A further experiment relates to NCI-H226. Particulars: Homo sapiens; NCI-H226, Non-Small Cell Lung Cancer; read-out: Percent growth. The procedure, abridged: as §1
In another experiment the test system is SR. The note with it: Homo sapiens, Leukemia, read-out: Percent growth. The essentials:
as §1

For the compound `COc1ccc(S(=O)(=O)NCCNc2nccc(-n3cnc4ccccc43)n2)cc1` [12f, N-(2-((4-(1H-benzo [d]imidazol-1-yl)pyrimidin-2-yl)amino)ethyl)-4-methoxy benzenesulfonamide], the activity at 10 µM in the experiment with T-47D is 82.3%; in the experiment on MDA-MB-468, 80.3%; in the experiment on HCT-15, 93.7%; with SF-295, 97%; in the experiment with EKVX it was 89.2%; in the experiment on HOP-92, 75.4%. Moreover, the activity at 10 µM was found to be 78.8% in the experiment on SNB-75; 103% in the experiment on U251; 93.3% with MOLT-4; 94.6% with RXF 393; 100% in the experiment on HT29; 93% in the experiment on K-562. Besides, the activity at 10 µM in the experiment on NCI-H23 came out at 96.9%; in the experiment on CAKI-1, 79.6%; in the experiment on KM12, 93.2%; in the experiment on NCI-H460, 106%; in the experiment on UO-31, 77.3%; in the experiment on NCI-H226, 80.6%. Moreover, in the experiment on SR, the activity at 10 µM came to 89.2%.

For the compound `O=S(=O)(NCCCNc1nccc(-n2cnc3ccccc32)n1)c1ccccc1` [12h, N-(3-((4-(1H-benzo [d]imidazol-1-yl)pyrimidin-2-yl)amino)propyl)benzenesulfonamide], the activity at 10 µM worked out at 45.8% in the experiment with T-47D; 68.8% in the experiment with MDA-MB-468; 88% in the experiment on HCT-15; 92.5% in the experiment on SF-295; 88.9% in the experiment with EKVX; 84.8% with HOP-92. Further, the activity at 10 µM with SNB-75 was determined as 89.7%; with U251, 98.2%; in the experiment with MOLT-4 it was 77.2%; with RXF 393, 110%; in the experiment on HT29, 101%; with K-562, 79.5%. The activity at 10 µM came out at 91.8% in the experiment on NCI-H23; 87.4% in the experiment with CAKI-1; 71% in the experiment on KM12; 96.9% in the experiment with NCI-H460; 75.3% in the experiment with UO-31; 81% in the experiment on NCI-H226. For the same compound, in the experiment with SR, the activity at 10 µM was 80%. The compound further came in with a percent inhibition with T-47D of 55%.

Take `O=S(=O)(NCCNc1nccc(-n2cnc3ccccc32)n1)c1ccccc1` [12a, N-(2-((4-(1H-benzo [d]imidazol-1-yl)pyrimidin-2-yl)amino)ethyl)benzenesulfonamide]: the activity at 10 µM with T-47D amounted to 75.4%; in the experiment on MDA-MB-468, 94.3%; with HCT-15 it was 97%; in the experiment on SF-295 it was 97.3%; with EKVX, 91.2%; in the experiment on HOP-92 it was 73.3%. For the same compound, the activity at 10 µM is 91.8% with SNB-75; 103% in the experiment on U251; 93.7% in the experiment on MOLT-4; 113% in the experiment with RXF 393; 102% in the experiment with HT29; 84.8% with K-562. Besides, the activity at 10 µM was found to be 96.4% with NCI-H23; 83.7% in the experiment with CAKI-1; 100% with KM12; 103% in the experiment on NCI-H460; 77% with UO-31; 84.6% in the experiment on NCI-H226. In addition, the activity at 10 µM in the experiment on SR was 97.5%.

Take `COc1ccc(S(=O)(=O)NCCCNc2nccc(-n3cnc4ccccc43)n2)cc1` [12m, N-(3-((4-(1H-benzo [d]imidazol-1-yl)pyrimidin-2-yl)amino)propyl)-4-methoxy benzenesulfonamide]: the activity at 10 µM in the experiment with T-47D was found to be 66.3%; in the experiment on MDA-MB-468 it was 77.2%; in the experiment with HCT-15, 92.3%; in the experiment on SF-295 it was 90.5%; in the experiment with EKVX, 84.4%; in the experiment with HOP-92, 75.8%. The activity at 10 µM amounted to 88.2% with SNB-75; 94.5% with U251; 77% in the experiment with MOLT-4; 80.6% in the experiment with RXF 393; 99.7% in the experiment with HT29; 78.8% in the experiment with K-562. In addition, the activity at 10 µM in the experiment on NCI-H23 came to 91.9%; in the experiment on CAKI-1 it was 68.8%; with KM12, 84.1%; in the experiment with NCI-H460 it was 97.3%; in the experiment on UO-31, 67.2%; with NCI-H226, 73.2%. Also, in the experiment on SR, the activity at 10 µM is 77.6%.

With `O=S(=O)(NCCCNc1nccc(-n2cnc3ccccc32)n1)c1cccc2ccccc12` [12n, N-(3-((4-(1H-benzo [d]imidazol-1-yl)pyrimidin-2-yl)amino)propyl)naphthalene-1-sulfonamide], the activity at 10 µM came out at 44.7% in the experiment with T-47D; 76.2% in the experiment on MDA-MB-468; 81.8% in the experiment on HCT-15; 81.2% in the experiment on SF-295; 75.1% with EKVX; 80.2% in the experiment on HOP-92. The activity at 10 µM was 87.2% with SNB-75; 90.8% with U251; 67% in the experiment with MOLT-4; 105% in the experiment on RXF 393; 96.3% in the experiment with HT29; 67.6% in the experiment with K-562. Also, the activity at 10 µM amounted to 91.3% with NCI-H23; 60.5% in the experiment on CAKI-1; 79.8% in the experiment on KM12; 89.8% in the experiment with NCI-H460; 60.7% in the experiment with UO-31; 77.8% with NCI-H226. The activity at 10 µM in the experiment with SR amounted to 75.4%. Besides, the percent inhibition with T-47D is reported as 56%; in the experiment on MOLT-4 (MOLT-4, NCI-60 heat map analysis), “around 30%”; in the experiment with K-562 (K-562, NCI-60 heat map analysis), “around 30%”.
